Source: patent publication US20250270199A1, “THIAZOLE DERIVATIVES AND METHODS OF USING THE SAME” (Arkansas State University - Jonesboro, priority 2022, published 2025)
Values after ≈ are worked out from the molar mass of the structure shown. Read-outs that look alike come from different tables or passages of the source.

Experiments:
[1] = system: E. faecium ATCC 700221 (Efm 21); assay: MIC, broth microdilution, Efm 21; assay type: cell-based; conditions: Enterococcus faecium, read-out: Minimum inhibitory concentration (MIC) Efm 21
Method: (§1) The broth microdilution method was utilized to determine MIC values of novel thiazole derivatives against different clinically important Gram-positive bacteria according to the guidelines outlined by the Clinical and Laboratory Standards Institute (CLSI) as reported in our recent papers.^1-5 The starting concentration of compounds for MIC determination was 64 μg/mL serially diluted down the wells and the MIC values were recorded in duplicates in three independent experiments on different days.

[2] = system: S. aureus subsp. aureus Rosenbach ATCC 25904 (SA Newman); assay: MIC, broth microdilution, SA Newman; assay type: cell-based; conditions: Staphylococcus aureus; Table 2, HTM series; read-out: Minimum inhibitory concentration (MIC) Sa Newman
Method: as §1

[3] = system: S. aureus ATCC 33591 (Sa 91); assay: MIC, broth microdilution, Sa 91; assay type: cell-based; conditions: Staphylococcus aureus, ATCC33591; Table 2, HTM series; read-out: Minimum inhibitory concentration (MIC) Sa 91
Method: as §1

[4] = system: S. aureus ATCC BAA-2312 (Sa 12); assay: MIC, broth microdilution, Sa 12; assay type: cell-based; conditions: Staphylococcus aureus, ATCCBAA2312; Table 2, HTM series; read-out: Minimum inhibitory concentration (MIC) Sa 12
Method: as §1

[5] = system: Sa UAMS-1 MRSA ATCC 49230 (Sa UAMS); assay: MIC, broth microdilution, Sa UAMS; assay type: cell-based, S. aureus; conditions: Staphylococcus aureus; Table 2, HTM series; read-out: Minimum inhibitory concentration (MIC) Sa UAMS-1
Method: as §1

[6] = system: S. aureus ATCC 700699 (Sa 99); assay: MIC, broth microdilution, Sa 99; assay type: cell-based; conditions: for MIC: Staphylococcus aureus, read-out: Minimum inhibitory concentration (MIC) Sa 99; for Minimum inhibitory concentration (MIC) Sa 99: Table 1, HT series
Method: as §1

[7] = system: E. faecalis ATCC 29212 (Efs 12); assay: MIC, broth microdilution, Efs 12; assay type: cell-based; conditions: for MIC: Enterococcus faecalis, read-out: Minimum inhibitory concentration (MIC) Efs 12; for Minimum inhibitory concentration (MIC) Efs 12: Table 1, HT series
Method: as §1

[8] = system: S. aureus ATCC 25923 (Sa 23); assay: MIC, broth microdilution, Sa 23; assay type: cell-based; conditions: for MIC: Staphylococcus aureus, read-out: Minimum inhibitory concentration (MIC) Sa 23; for Minimum inhibitory concentration (MIC) Sa 23: Table 1, HT series
Method: as §1

[9] = system: S. aureus ATCC 33592 (Sa 92); assay: MIC, broth microdilution, Sa 92; assay type: cell-based; conditions: Staphylococcus aureus, ATCC33592; Table 2, HTM series; read-out: Minimum inhibitory concentration (MIC) Sa 92
Method: as §1

[10] = system: S. aureus subsp. aureus Rosenbach BAA-1717 (Sa USA 300); assay: MIC, broth microdilution, Sa USA 300; assay type: cell-based; conditions: Staphylococcus aureus; Table 2, HTM series; read-out: Minimum inhibitory concentration (MIC) Sa USA 300
Method: as §1

[11] = system: S. epidermidis ATCC 700296 (Se); assay: MIC, broth microdilution, Se; assay type: cell-based; conditions: Staphylococcus epidermidis, ATCC700296; Table 2, HTM series; read-out: Minimum inhibitory concentration (MIC) Se
Method: as §1

[12] = system: E. faecalis ATCC 51299 (Efs 99); assay: MIC, broth microdilution, Efs 99; assay type: cell-based; conditions: for MIC: Enterococcus faecalis, ATCC51299, read-out: Minimum inhibitory concentration (MIC) Efs 99
Method: as §1

[13] = ATCC700221, Table 2, HTM series
[14] = ATCC700699, Table 2, HTM series
[15] = ATCC700699, Table 1, HT series, replicates from different days separated by comma
[16] = replicates from different days separated by comma
[17] = ATCC29212, Table 1, HT series, replicates from different days separated by comma
[18] = ATCC25923, Table 1, HT series, replicates from different days separated by comma

SMILES | MIC [1, 13] [µg/mL] | MIC [2] [µg/mL] | MIC [3] [µg/mL] | MIC [4] [µg/mL] | MIC [5] [µg/mL] | MIC [6, 14] [µg/mL] | MIC ([7]; ATCC29212, Table 2, HTM series) [µg/mL] | MIC ([8]; ATCC25923, Table 2, HTM series) [µg/mL] | MIC [9] [µg/mL] | MIC [10] [µg/mL] | MIC [11] [µg/mL] | MIC ([12]; Table 2, HTM series) [µg/mL] | MIC [6, 15] [µg/mL] | Minimum inhibitory concentration (MIC) Sa 99 [6, 16] | MIC [7, 17] [µg/mL] | Minimum inhibitory concentration (MIC) Efs 12 [7, 16] | MIC [8, 18] [µg/mL] | Minimum inhibitory concentration (MIC) Sa 23 [8, 16] | other results
Oc1ccc(-c2csc(Nc3cc(C(F)(F)F)cc(C(F)(F)F)c3)n2)cc1 [Compound 59, 4-(2-((3,5-bis(trifluoromethyl)phenyl)amino)thiazol-4-yl)phenol] | 1 (≈ 2.47 µM) | 1 (≈ 2.47 µM) | 1 (≈ 2.47 µM) | 1 (≈ 2.47 µM) | 2 (≈ 4.95 µM) | 1 (≈ 2.47 µM) | 1 (≈ 2.47 µM) | 1 (≈ 2.47 µM) | 1 (≈ 2.47 µM) | 1 (≈ 2.47 µM) | 1 (≈ 2.47 µM) | 1 (≈ 2.47 µM) |  |  |  |  |  |  | 
CCCCCCCCCC(=O)N[C@@H](Cc1c[nH]c2ccccc12)C(=O)N[C@H](CC(N)=O)C(=O)N[C@@H](CC(=O)O)C(=O)N[C@@H]1C(=O)NCC(=O)N[C@@H](CCCN)C(=O)N[C@@H](CC(=O)O)C(=O)N[C@H](C)C(=O)N[C@@H](CC(=O)O)C(=O)NCC(=O)N[C@H](CO)C(=O)N[C@@H]([C@H](C)CC(=O)O)C(=O)N[C@@H](CC(=O)c2ccccc2N)C(=O)O[C@@H]1C [Dapt., Daptomycin, reference compound] | 1 (≈ 0.617 µM) |  |  |  |  |  |  |  |  |  |  |  |  |  |  |  |  |  | MIC ([1]; ATCC700221, Table 1, HT series): 4 µg/mL (≈ 2.47 µM); MIC ([12]; Table 1, HT series): 1 µg/mL (≈ 0.617 µM); Minimum inhibitory concentration (MIC) Efs 99 ([12]; Table 2, HTM series): 1 µg/mL (≈ 0.617 µM)
Oc1ccc(-c2nc(-c3ccncc3)cs2)cc1O [Compound 11, 4-(4-(pyridin-4-yl)thiazol-2-yl)benzene-1,2-diol] |  |  |  |  |  |  |  |  |  |  |  |  | > 32 | >32, >32 μg/mL | > 32 | >32, >32 μg/mL | > 32 | >32, >32 μg/mL | 
COc1ccc(-c2csc(-c3ccc(O)c(O)c3)n2)cc1 [Compound 7, 4-(4-(4-methoxyphenyl)thiazol-2-yl)benzene-1,2-diol] |  |  |  |  |  |  |  |  |  |  |  |  | 32 (≈ 107 µM) | 32, 32 μg/mL | > 32 | >32, >32 μg/mL | 16 (≈ 53.4 µM) | 16, 16 μg/mL | 
Oc1ccc(-c2nc(C(F)(F)F)cs2)cc1O [Compound 1, 4-(4-(trifluoromethyl)thiazol-2-yl)benzene-1,2-diol] |  |  |  |  |  |  |  |  |  |  |  |  | > 32 | >32, >32 μg/mL | > 32 | >32, >32 μg/mL | > 32 | >32, >32 μg/mL | 
O=C(O)c1ccc(-c2csc(-c3ccc(O)c(O)c3)n2)cc1 [Compound 13, 4-(2-(3,4-dihydroxyphenyl)thiazol-4-yl)benzoic acid] |  |  |  |  |  |  |  |  |  |  |  |  | > 32 | >32, >32 μg/mL | > 32 | >32, >32 μg/mL | > 32 | >32, >32 μg/mL | 

More lines, main results first:

MIC [1, 13] [µg/mL] | MIC [2] [µg/mL] | MIC [3] [µg/mL] | MIC [4] [µg/mL] | MIC [5] [µg/mL] | MIC [6, 14] [µg/mL] | MIC ([7]; ATCC29212, Table 2, HTM series) [µg/mL] | MIC ([8]; ATCC25923, Table 2, HTM series) [µg/mL] | MIC [9] [µg/mL] | MIC [10] [µg/mL] | MIC [11] [µg/mL] | MIC ([12]; Table 2, HTM series) [µg/mL] | MIC [6, 15] [µg/mL] | Minimum inhibitory concentration (MIC) Sa 99 [6, 16] | MIC [7, 17] [µg/mL] | Minimum inhibitory concentration (MIC) Efs 12 [7, 16] | MIC [8, 18] [µg/mL] | Minimum inhibitory concentration (MIC) Sa 23 [8, 16] | SMILES | other results
 |  |  |  |  |  |  |  |  |  |  |  | > 32 | >32, >32 μg/mL | > 32 | >32, >32 μg/mL | > 32 | >32, >32 μg/mL | Oc1ccc(-c2nc(-c3ccc(-c4ccccc4)cc3)cs2)cc1O [Compound 15, 4-(4-([1,1′-biphenyl]-4-yl)thiazol-2-yl)benzene-1,2-diol] | 
8 (≈ 23.7 µM) | 8 (≈ 23.7 µM) | 8 (≈ 23.7 µM) | 4 (≈ 11.9 µM) | 8 (≈ 23.7 µM) | 8 (≈ 23.7 µM) | 16 (≈ 47.4 µM) | 4 (≈ 11.9 µM) | 8 (≈ 23.7 µM) | 8 (≈ 23.7 µM) | 8 (≈ 23.7 µM) | 8 (≈ 23.7 µM) |  |  |  |  |  |  | Oc1ccc(-c2csc(-c3ccc(C(F)(F)F)cc3)n2)cc1O [Compound 47, 4-{2-[4-(trifluoromethyl)phenyl]-1,3-thiazol-4-yl}benzene-1,2-diol] | 
4 (≈ 11.3 µM) | 8 (≈ 22.6 µM) | 8 (≈ 22.6 µM) | 4 (≈ 11.3 µM) | 8 (≈ 22.6 µM) | 4 (≈ 11.3 µM) | 8 (≈ 22.6 µM) | 4 (≈ 11.3 µM) | 4 (≈ 11.3 µM) | 8 (≈ 22.6 µM) | 4 (≈ 11.3 µM) | 8 (≈ 22.6 µM) |  |  |  |  |  |  | Oc1ccc(-c2csc(Nc3ccc(Cl)c(Cl)c3)n2)cc1O [Compound 74, 4-(2-((3,4-dichlorophenyl)amino)thiazol-4-yl)benzene-1,2-diol] | 
4 (≈ 9.52 µM) | 4 (≈ 9.52 µM) | 4 (≈ 9.52 µM) | 4 (≈ 9.52 µM) | 4 (≈ 9.52 µM) | 4 (≈ 9.52 µM) | 4 (≈ 9.52 µM) | 4 (≈ 9.52 µM) | 4 (≈ 9.52 µM) | 4 (≈ 9.52 µM) | 4 (≈ 9.52 µM) | 4 (≈ 9.52 µM) |  |  |  |  |  |  | Oc1ccc(-c2csc(Nc3cc(C(F)(F)F)cc(C(F)(F)F)c3)n2)cc1O [Compound 58, 4-(2-((3,5-bis(trifluoromethyl)phenyl)amino)thiazol-4-yl)benzene-1,2-diol] | 
 |  |  |  |  |  |  |  |  |  |  |  | > 32 | >32, >32 μg/mL | > 32 | >32, >32 μg/mL | > 32 | >32, >32 μg/mL | NC(=O)c1cc(-c2csc(-c3ccc(O)c(O)c3)n2)ccc1O [Compound 16, 5-(2-(3,4-dihydroxyphenyl)thiazol-4-yl)-2-hydroxybenzamide] | 
 |  |  |  |  |  |  |  |  |  |  |  | 16 (≈ 47.4 µM) | 32 µg/mL (≈ 94.9 µM) | > 32 | >32, >32 μg/mL | > 32 | >32, >32 μg/mL | O=c1oc2ccccc2cc1-c1csc(-c2ccc(O)c(O)c2)n1 [Compound 17, 3-(2-(3,4-dihydroxyphenyl)thiazol-4-yl)-2H-chromen-2-one] | 
 |  |  |  |  |  |  |  |  |  |  |  | > 32 | >32, >32 μg/mL | > 32 | >32, >32 μg/mL | > 32 | >32, >32 μg/mL | N#Cc1ccc(-c2csc(-c3ccc(O)c(O)c3)n2)cc1 [Compound 12, 4-(2-(3,4-dihydroxyphenyl)thiazol-4-yl)benzonitrile] | 
